Results reported in ChEMBL document CHEMBL5036301, “Heteroaryl ether analogues of an antileishmanial 7-substituted 2-nitroimidazooxazine lead afford attenuated hERG risk: In vitro and in vivo appraisal” (Eur J Med Chem, 2021).
Values after ≈ are worked out from the molar mass of the structure shown.

How the values were obtained:
[1] = Kinetic solubility of compound in water at pH7 by HPLC analysis; settings: pH 7
[2] = AUClast in mouse at 25 mg/kg, po measured upto 24 hrs LC-MS/MS analysis; settings: in vivo
Leishmania infantum [3] = assay: Antileishmanial activity against Leishmania infantum amastigotes infected in golden hamster assessed as reduction in parasite load in bone marrow tissue at 50 mg/kg, po administered once daily for 5 days relative to control; type: functional; settings: 120 h, time 5 day
[4] = AUClast in hamster at 41 to 51 mg/kg, po measured upto 24 hrs LC-MS/MS analysis; settings: chinese hamster, in vivo
in vivo [5] = settings: mouse, po, 25 mg/kg
[6] = tested on: Mycobacterium tuberculosis; assay: Antitubercular activity against Mycobacterium tuberculosis H37Rv assessed as reduction in microbial growth under aerobic condition by luminescence analysis; type: functional
[7] = Half life in mouse at 25 mg/kg, po measured upto 24 hrs LC-MS/MS analysis; settings: in vivo
Leishmania infantum [8] = assay: Antileishmanial activity against Leishmania infantum amastigotes infected in golden hamster assessed as reduction in parasite load in spleen tissue at 50 mg/kg, po administered once daily for 5 days relative to control; type: functional; settings: 120 h, time 5 day
in vivo [9] = settings: chinese hamster, po
Leishmania infantum [10] = assay: Antileishmanial activity against Leishmania infantum MHOM/MA(BE)/67 amastigotes infected in macrophages assessed as reduction in parasite burden by giemsa staining based microscopic analysis; type: functional, organism-based
[11] = tested on: Mycobacterium tuberculosis; assay: Antitubercular activity against Mycobacterium tuberculosis H37Rv assessed as reduction in microbial growth under anaerobic condition by luminescence analysis; type: functional
Leishmania donovani [12] = assay: Antileishmanial activity against Leishmania donovani amastigotes infected in BALB/C mouse assessed as reduction in parasite burden in liver tissue at 50 mg/kg, po administered once per day for 5 days relative to control; type: functional; settings: 120 h, time 5 day
[13] = Half life in hamster at 41 to 51 mg/kg, po measured upto 24 hrs LC-MS/MS analysis; settings: chinese hamster, in vivo
in vivo [14] = settings: chinese hamster, po; remark: listed apart in the source
Leishmania infantum [15] = assay: Antileishmanial activity against Leishmania infantum amastigotes infected in golden hamster assessed as reduction in parasite load in liver tissue at 50 mg/kg, po administered once daily for 5 days relative to control; type: functional; settings: 120 h, time 5 day
in vivo [16] = settings: mouse, po, 25 mg/kg; remark: listed apart in the source
MRC5 = assay: Cytotoxicity against human MRC5 cells assessed as cell viability after 72 hrs by fluorimetric analysis; type: ADME, cell-based; settings: MRC5, 72 h
Trypanosoma cruzi = assay: Antitrypanosomal activity against Trypanosoma cruzi Tulahuen CL2 infected in human MRC-5 cells assessed as parasite growth; type: functional, organism-based; settings: Tulahuen CL2, MRC5
Leishmania donovani [17] = assay: Antileishmanial activity against Leishmania donovani amastigotes infected in BALB/C mouse assessed as reduction in parasite burden in liver tissue at 12.5 mg/kg, po administered once per day for 5 days relative to control; type: functional; settings: 120 h, time 5 day
Leishmania infantum [18] = assay: animal or person; settings: in Mesocricetus auratus, po, 120 h, read-out: INH
Description: Antileishmanial activity against Leishmania infantum amastigotes infected in golden hamster assessed as reduction in parasite load in spleen tissue at 12.5 mg/kg, po administered once daily for 5 days relative to control

Leishmania donovani [19] = assay: Antileishmanial activity against Leishmania donovani amastigotes infected in mouse J774A.1 cells incubated for 72 hrs by luciferase assay; type: functional, organism-based; settings: J774.A1, 72 h
Leishmania infantum [20] = assay: Antileishmanial activity against Leishmania infantum amastigotes infected in golden hamster assessed as reduction in parasite load in bone marrow tissue at 25 mg/kg, po administered once daily for 5 days relative to control; settings: in Mesocricetus auratus, 120 h, read-out: INH
Leishmania donovani [21] = assay: Antileishmanial activity against Leishmania donovani amastigotes infected in BALB/C mouse assessed as reduction in parasite burden in liver tissue at 25 mg/kg, po administered once per day for 5 days relative to control; settings: 120 h, read-out: INH
Leishmania infantum [22] = assay: animal or person; settings: in Mesocricetus auratus, po, 120 h, read-out: INH; remark: listed apart in the source
Description: Antileishmanial activity against Leishmania infantum amastigotes infected in golden hamster assessed as reduction in parasite load in bone marrow tissue at 12.5 mg/kg, po administered once daily for 5 days relative to control

Leishmania infantum [23] = assay: Antileishmanial activity against Leishmania infantum amastigotes infected in golden hamster assessed as reduction in parasite load in liver tissue at 25 mg/kg, po administered once daily for 5 days relative to control; settings: in Mesocricetus auratus, 120 h, read-out: INH
Leishmania infantum [24] = assay: animal or person; settings: in Mesocricetus auratus, po, 120 h, read-out: INH; remark: listed apart in the source
Description: Antileishmanial activity against Leishmania infantum amastigotes infected in golden hamster assessed as reduction in parasite load in liver tissue at 12.5 mg/kg, po administered once daily for 5 days relative to control

Leishmania donovani [25] = assay: Antileishmanial activity against Leishmania donovani amastigotes infected in BALB/C mouse assessed as reduction in parasite burden in liver tissue at 3.13 mg/kg, po administered once per day for 5 days relative to control; type: functional; settings: 120 h, time 5 day
Leishmania infantum [26] = assay: Antileishmanial activity against Leishmania infantum amastigotes infected in golden hamster assessed as reduction in parasite load in spleen tissue at 40 mg/kg, po administered once daily for 5 days relative to control; type: functional; settings: 120 h, time 5 day
Leishmania infantum [27] = assay: Antileishmanial activity against Leishmania infantum amastigotes infected in golden hamster assessed as reduction in parasite load in bone marrow tissue at 40 mg/kg, po administered once daily for 5 days relative to control; type: functional; settings: 120 h, time 5 day
Leishmania infantum [28] = assay: Antileishmanial activity against Leishmania infantum amastigotes infected in golden hamster assessed as reduction in parasite load in liver tissue at 40 mg/kg, po administered once daily for 5 days relative to control; type: functional; settings: 120 h, time 5 day
Leishmania donovani [29] = assay: Antileishmanial activity against Leishmania donovani amastigotes infected in BALB/C mouse assessed as reduction in parasite burden in liver tissue at 6.25 mg/kg, po administered once per day for 5 days relative to control; type: functional; settings: 120 h, time 5 day

C[C@]1(COc2ccc(C(F)(F)F)cn2)CCn2cc([N+](=O)[O-])nc2O1
solubility kinetic [1]: 26 µg/mL (≈ 72.6 µM) | AUC(0-t) at 24 h [2]: 39600 ng·h/mL | inhibition in vivo at 50 mg/kg (Leishmania infantum [3]): 54% | AUC(0-t) at 24 h [4]: 72 ng·h/mL | Tmax at 24 h (in vivo [5]): 3.7 h | MIC [6]: 0.16 µM | half-life at 24 h [7]: 1.5 h | inhibition in vivo at 50 mg/kg (Leishmania infantum [8]): 47.1% | Cmax at 24 h (in vivo [9]): 45 ng/mL | IC50 (Leishmania infantum [10]): 0.29 µM | MIC [11]: 3.8 µM | inhibition in vivo at 50 mg/kg (Leishmania donovani [12]): 84% | half-life at 24 h [13]: 0.72 h | Tmax at 24 h (in vivo [14]): 0.75 h | inhibition in vivo at 50 mg/kg (Leishmania infantum [15]): 51.8% | Cmax at 24 h (in vivo [16]): 9500 ng/mL | IC50 (MRC5): > 64 µM | IC50 (Trypanosoma cruzi): 0.34 µM

CC1(COc2ccc(OC(F)(F)F)cc2)CCn2cc([N+](=O)[O-])nc2O1 (stereo not drawn)
inhibition in vivo at 50 mg/kg (Leishmania infantum [3]): 99.5% | inhibition in vivo at 50 mg/kg (Leishmania infantum [8]): 99.7% | inhibition in vivo at 50 mg/kg (Leishmania infantum [15]): 100% | inhibition in vivo at 12.5 mg/kg (Leishmania donovani [17]): > 99%

C[C@]1(COc2ccc(OC(F)(F)F)cc2)CCn2cc([N+](=O)[O-])nc2O1
inhibition in vivo at 12.5 mg/kg (Leishmania infantum [18]): 59.5% | inhibition in vivo at 50 mg/kg (Leishmania infantum [3]): 96.7% | IC50 (Leishmania donovani [19]): 0.06 µM | inhibition in vivo at 25 mg/kg (Leishmania infantum [20]): 81.5% | inhibition in vivo at 25 mg/kg (Leishmania donovani [21]): > 99% | inhibition in vivo at 12.5 mg/kg (Leishmania infantum [22]): 42.5% | inhibition in vivo at 50 mg/kg (Leishmania infantum [8]): 98% | inhibition in vivo at 25 mg/kg (Leishmania infantum [23]): 93.6% | inhibition in vivo at 50 mg/kg (Leishmania infantum [15]): 99.6% | inhibition in vivo at 12.5 mg/kg (Leishmania infantum [24]): 67.8% | inhibition in vivo at 3.13 mg/kg (Leishmania donovani [25]): 51%

CCCCCCCCCCCCCCCCOP(=O)([O-])OCC[N+](C)(C)C [MILTEFOSINE]
inhibition in vivo at 40 mg/kg (Leishmania infantum [26]): 99.7% | inhibition in vivo at 40 mg/kg (Leishmania infantum [27]): 94.9% | inhibition in vivo at 40 mg/kg (Leishmania infantum [28]): 98.5%

C[C@]1(COc2ccc(OC(F)(F)F)cc2)Cn2cc([N+](=O)[O-])nc2O1
inhibition in vivo at 6.25 mg/kg (Leishmania donovani [29]): > 99% | inhibition in vivo at 12.5 mg/kg (Leishmania donovani [17]): > 99%
